Assay results published in patent EP0900210B1, “ANTIVIRALLY ACTIVE HETEROCYCLIC AZAHEXANE DERIVATIVES” (Novartis AG, priority 1996, dated 1997).

These compounds were tested against T1, HIV-1-protease (Human immunodeficiency virus type 1 group M subtype B, UniProt P04585) (assay: Inhibition of HIV-1-protease with icosapeptide substrate […] (HPLC)). Conditions: not given.
T1 construct: made in house
Type: biochemical
Protocol: The inhibitory action of the compounds of formula I on the proteolytic activity of HIV-1-protease can be shown, for example, according to known procedures (see A. D. Richards et al., J. Biol. Chem. 265(14), 7733-7736 (1990)). In that method the inhibition of the action of HIV-1-protease (preparation: see S. Billich et al., J. Biol. Chem. 263(34), 17905-17908 (1990)) is measured in the presence of the icosapeptide […] (a synthetic substrate of HIV-1-protease, prepared by peptide synthesis in accordance with known procedures (see J. Schneider et al., Cell 54, 363-368 (1988)), which contains as substrate analogue one of the cleavage sites of the gag-precursor protein (natural substrate of HIV-1-protease). That substrate and its cleavage products are analysed by high performance liquid chromatography (HPLC).
The test compound is dissolved in dimethyl sulfoxide. The enzymatic test is carried out by adding suitable dilutions of the inhibitor in 20 mM β-morpholinoethanesulfonic acid (MES) buffer pH 6.0 to the test mixture. That mixture consists of the above-mentioned icosapeptide (122 µM) in 20 mM MES-buffer pH 6.0. 100 µl are used per test batch. The reaction is started by the addition of […] of HIV-1-protease solution and is stopped after one hour's incubation at 37°C by the addition of 10 µl of 0.3M HClO4. After centrifugation of the sample at 10 000 x g for 5 minutes, 20 µl of the resulting supernatant are applied to a 125 x 4.6 mm Nucleosil® C18-5m-HPLC column (reversed-phase material supplied by Macherey & Nagel, Düren, FRG, based on silica gel that has been charged with C18alkyl chains). The uncleaved icosapeptide and its cleavage products are eluted from the column by means of the following gradient: 100 % eluant 1 → 50 % eluant 1 + 50 % eluant 2 (eluant 1: 10 % acetonitrile, 90 % H2O, 0.1 % trifluoroacetic acid (TFA); eluant 2: 75 % acetonitrile, 25 % H2O, 0.08 % TFA) for 15 minutes, throughflow rate 1 ml/min. The quantification of the eluted peptide fragments is carried out by measuring the peak height of the cleavage product at 215 nm.
Using the test system described above with the icosapeptide […], the IC50 values given below are obtained for the following Examples: […]
With `CC[C@H](C)[C@H](NC(=O)OC)C(=O)N[C@@H](Cc1ccccc1)[C@@H](O)CN(Cc1ccc(-c2ccccn2)cc1)NC(=O)[C@@H](NC(=O)OC)C(C)C` [Example 50, 1-[4-(Pyridin-2-yl)-phenyl]-4(S)-hydroxy-2-N-(N-methoxy-carbonyl-(L)-valyl)amino-5(S)-N-(N-methoxycarbonyl-(L)-iso-leucyl)amino-6-phenyl-2-azahexane] the IC50 was 28 nM. `COC(=O)N[C@H](C(=O)N[C@@H](Cc1ccccc1)[C@@H](O)CN(Cc1ccc(-c2ccccn2)cc1)NC(=O)[C@@H](NC(=O)OC)C(C)(C)C)C(C)C` [Example 49, 1-[4-(Pyridin-2-yl)-phenyl]-4(S)-hydroxy-2-N-(N-methoxy-carbonyl-(L)-tert-leucyl)amino-5(S)-N-(N-methoxycarbonyl-(L)-valyl)amino-6-phenyl-2-azahexane] gave an IC50 of 20 nM.

Same assay, conditions: icosapeptide RRSNQVSQNYPIVQNIQGRR 122 µM, 20 mM MES pH 6.0, one hour at 37°C; read-out: IC50
For “1-[4-(Pyrazin-2-yl)-phenyl]-4(S)-hydroxy-2-[N-(N-methoxycarbonyl-(L)-valyl)amino]-5(S)-[N-(N-methoxycarbonyl-(L)-tert-leucyl)amino]-6-phenyl-2-azahexane [Example 44]”, the IC50 was 29 nM.

Same assay, conditions: icosapeptide […] 122 µM, 20 mM MES pH 6.0, one hour at 37°C; read-out: IC50
For `COC(=O)N[C@H](C(=O)N[C@@H](Cc1ccccc1)[C@@H](O)CN(Cc1ccc(-c2cnccn2)cc1)NC(=O)[C@@H](NC(=O)OC)C(C)C)C(C)C` [Example 40, 1-[4-(Pyrazin-2-yl)-phenyl]-4(S)-hydroxy-5(S)-2,5-bis[N-(N-methoxycarbonyl-(L)-valyl)amino]-6-phenyl-2-azahexane], the IC50 was 21 nM. Compound `CCOC(=O)N[C@H](C(=O)NN(Cc1ccc(-c2ccccn2)cc1)C[C@H](O)[C@H](Cc1ccccc1)NC(=O)[C@@H](NC(=O)OC)C(C)C)C(C)C` [Example 52, 1-[4-(Pyridin-2-yl)-phenyl]-4(S)-hydroxy-2-N-(N-ethoxy-carbonyl-(L)-valyl)-amino-5(S)-N-(N-methoxycarbonyl-(L)-valyl)amino-6-phenyl-2-azahexane] has an IC50 of 34 nM. `CC[C@H](C)[C@H](NC(=O)OC)C(=O)NN(Cc1ccc(-c2cncs2)cc1)C[C@H](O)[C@H](Cc1ccccc1)NC(=O)[C@@H](NC(=O)OC)C(C)C` [Example 9, 1-[4-(Thiazol-5-yl)-phenyl]-4(S)-hydroxy-2-N-(N-methoxycarbonyl-(L)-isoleucyl)amino-5(S)-N-(N-methoxycarbonyl-(L)-valyl)amino-6-phenyl-2-azahexane] gave an IC50 of 19 nM. `COC(=O)N[C@H](C(=O)N[C@@H](Cc1ccccc1)[C@@H](O)CN(Cc1ccc(-c2cccnc2)cc1)NC(=O)[C@@H](NC(=O)OC)C(C)C)C(C)C` [Example 39, 1-[4-(Pyridin-3-yl)-phenyl]-4(S)-hydroxy-5(S)-2,5-bis[N-(N-methoxycarbonyl-(L)-valyl)amino]-6-phenyl-2-azahexane] was tested, and the IC50 was 12 nM. `COC(=O)N[C@H](C(=O)N[C@@H](Cc1ccccc1)[C@@H](O)CN(Cc1ccc(-c2nnn[nH]2)cc1)NC(=O)[C@@H](NC(=O)OC)C(C)(C)C)C(C)(C)C` [Example 26, 1-[4-(Tetrazol-5-yl)-phenyl]-4(S)-hydroxy-5(S)-2,5-bis[N-(N-methoxycarbonyl-(L)-tert-leucyl)amino]-6-phenyl-2-azahexane] showed an IC50 of 21 nM. With `COC(=O)N[C@H](C(=O)N[C@@H](Cc1ccccc1)[C@@H](O)CN(Cc1ccc(-c2nnn(C(C)(C)C)n2)cc1)NC(=O)[C@@H](NC(=O)OC)C(C)(C)C)C(C)(C)C` [Example 34, 1-[4-(2-tert-Butyl-2H-tetrazol-5-yl)-phenyl]-4(S)-hydroxy-5(S)-2,5-bis[N-(N-methoxycarbonyl-(L)-tert-leucyl)amino]-6-phenyl-2-azahexane] the IC50 was 72 nM. `COC(=O)N[C@H](C(=O)N[C@@H](Cc1ccccc1)[C@@H](O)CN(Cc1ccc(-c2cncs2)cc1)NC(=O)[C@@H](NC(=O)OC)C(C)(C)C)C(C)C` [Example 7, 1-[4-(Thiazol-5-yl)-phenyl]-4(S)-hydroxy-2-N-(N-methoxcarbonyl-(L)-tert-leucyl)amino-5(S)-N-(N-methoxycarbonyl-(L)-valyl)amino-6-phenyl-2-azahexane] gave an IC50 of 13 nM. Work on `CC[C@H](C)[C@H](NC(=O)OC)C(=O)N[C@@H](Cc1ccccc1)[C@@H](O)CN(Cc1ccc(-c2cnccn2)cc1)NC(=O)[C@@H](NC(=O)OC)[C@@H](C)CC` [Example 43, 1-[4-(Pyrazin-2-yl)-phenyl]-4(S)-hydroxy-5(S)-2,5-bis[N-(N-methoxycarbonyl-(L)-iso-leucyl)amino]-6-phenyl-2-azahexane] yielded an IC50 of 37 nM. Compound `CC[C@H](C)[C@H](NC(=O)OC)C(=O)N[C@@H](Cc1ccccc1)[C@@H](O)CN(Cc1ccc(-c2cncs2)cc1)NC(=O)[C@H](CSC)NC(=O)OC` [Example 15, 1-[4-(Thiazol-5-yl)-phenyl]-4(S)-hydroxy-2-N-(N-methoxycarbonyl-(L)-S-methylcysteinyl)amino-5(S)-N-(N-methoxycarbonyl-(L)-iso-leucyl)amino-6-phenyl-2-azahexane] has an IC50 of 50 nM. `CC[C@H](C)[C@H](NC(=O)OC)C(=O)NN(Cc1ccc(-c2nnn(C)n2)cc1)C[C@H](O)[C@H](Cc1ccccc1)NC(=O)[C@@H](NC(=O)OC)C(C)(C)C` [Example 30, 1-[4-(2-Methyl-2H-tetrazol-5-yl)-phenyl]-4(S)-hydroxy-2-N-(N-methoxycarbonyl-(L)-iso-leucyl)amino-5(S)-N-(N-methoxycarbonyl-(L)-tert-leucyl)amino-6-phenyl-2-azahexane] was tested, and the IC50 was 54 nM. For `CC[C@H](C)[C@H](NC(=O)OC)C(=O)NN(Cc1ccc(-c2cnccn2)cc1)C[C@H](O)[C@H](Cc1ccccc1)NC(=O)[C@@H](NC(=O)OC)C(C)C` [Example 41, 1-[4-(Pyrazin-2-yl)-phenyl]-4(S)-hydroxy-2-[N-(N-methoxycarbonyl-(L)-iso-leucyl)amino]-5(S)-[N-(N-methoxycarbonyl-(L)-valyl)amino]-6-phenyl-2-azahexane], the IC50 was 32 nM. Work on `CC[C@H](C)[C@H](NC(=O)OC)C(=O)NN(Cc1ccc(-c2nccs2)cc1)C[C@H](O)[C@H](Cc1ccccc1)NC(=O)[C@@H](NC(=O)OC)C(C)C` [Example 18, 1-[4-(Thiazol-2-yl)-phenyl]-4(S)-hydroxy-2-N-(N-methoxycarbonyl-(L)-iso-leucyl)amino-5(S)-N-(N-methoxycarbonyl-(L)-valyl)amino-6-phenyl-2-azahexane] yielded an IC50 of 25 nM. With `CC[C@H](C)[C@H](NC(=O)OC)C(=O)N[C@@H](Cc1ccccc1)[C@@H](O)CN(Cc1ccc(-c2nccs2)cc1)NC(=O)[C@H](CSC)NC(=O)OC` [Example 24, 1-[4-(Thiazol-2-yl)-phenyl]-4(S)-hydroxy-2-N-(N-methoxycarbonyl-(L)-S-methylcysteinyl)amino-5(S)-N-(N-methoxycarbonyl-(L)-iso-leucyl)amino-6-phenyl-2-azahexane] the IC50 was 50 nM. For `CC[C@H](C)[C@H](NC(=O)OC)C(=O)N[C@@H](Cc1ccccc1)[C@@H](O)CN(Cc1ccc(-c2cncs2)cc1)NC(=O)[C@@H](NC(=O)OC)C(C)(C)C` [Example 11, 1-[4-(Thiazol-5-yl)-phenyl]-4(S)-hydroxy-2-N-(N-methoxycarbonyl-(L)-tert-leucyl)amino-5(S)-N-(N-methoxycarbonyl-(L)-iso-leucyl)amino-6-phenyl-2-azahexane], the IC50 was 37 nM. In the case of `COC(=O)N[C@H](C(=O)N[C@@H](Cc1ccccc1)[C@@H](O)CN(Cc1ccc(-c2cnccn2)cc1)NC(=O)[C@@H](NC(=O)OC)C(C)(C)C)C(C)C` [Example 42, 1-[4-(Pyrazin-2-yl)-phenyl]-4(S)-hydroxy-2-[N-(N-methoxycarbonyl-(L)-tert-leucyl)amino]-5(S)-[N-(N-methoxycarbonyl-(L)-valyl)amino]-6-phenyl-2-azahexane], the IC50 is reported as 15 nM. With `CC[C@H](C)[C@H](NC(=O)OC)C(=O)N[C@@H](Cc1ccccc1)[C@@H](O)CN(Cc1ccc(-c2ccccn2)cc1)NC(=O)[C@@H](NC(=O)OC)[C@@H](C)CC` [Example 47, [4-(Pyridin-2-yl)-phenyl]-4(S)-hydroxy-5(S)-2,5-bis[N-(N-methoxycarbonyl-(L)-iso-leucyl)amino]-6-phenyl-2-azahexane] the IC50 was 40 nM. Compound `CCOC(=O)N[C@H](C(=O)NN(Cc1ccc(-c2cncs2)cc1)C[C@H](O)[C@H](Cc1ccccc1)NC(=O)[C@@H](NC(=O)OC)C(C)(C)C)C(C)C` [Example 6, 1-[4-(Thiazol-5-yl)-phenyl]-4(S)-hydroxy-2-N-(N-ethoxycarbonyl-(L)-valyl)-amino-5(S)-N-(N-methoxycarbonyl-(L)-tert-leucyl)amino-6-phenyl-2-azahexane] has an IC50 of 22 nM.
